# Reference: US4432906A, “Inhibitors of SRS-synthesis” (Hoffmann-La Roche Inc., priority 1981, dated 1984)
# System: SRS-A synthesis in rat peritoneal cells
# Assay: Inhibition of the in vitro synthesis of SRS-A in rat peritoneal cells (ionophore A23187 challenge; SRS-A quantitated by guinea pig ileum bioassay)
# Format: cell-based, rat (male Sprague-Dawley)
# Details: for IC50: concentration of test drug which inhibits the synthesis of SRS-A by 50%, from plot of mean percent inhibition versus drug concentration; for inhibition at 10 µM: inhibition of SRS-A synthesis, 10 μM test drug, 10 min preincubation at 37° C., challenge with 5×10^-7 M ionophore A23187, mean percent inhibition
# Excerpt: Inhibition of the In Vitro Synthesis of SRS-A in Rat Peritoneal Cells
# To study the effect of drugs on SRS-A synthesis in rat peritoneal cells, these cells (including mast cells, monocytes, eosinophils and neutrophils)were isolated from male Sprague-Dawley rats (Charles River Laboratories) weighing 180-220 g by the lavage procedure described by Herzig, D. G. and Dusner, E. J. Journal of Pharmacology and Experimental Therapeutics, 194, 457-460 (1975) with the exception that Hanks balanced salt solution used in these experiments was adjusted to pH 6.9 with 5% (V/V) of 0.1 M aqueous phosphate buffer and contained 50 mg/ml sodium heparin. After removal from the peritoneal cavity of rats, the cells were subsequently isolated by centrifugation at 400×gravity for 10 minutes at 4° C. and resuspended to a concentration of about 2,000,000 cells per ml in Hanks buffer.
# Samples for evaluation were prepared by adding various concentrations of test drugs to 2 ml aliquots of resuspended cells in Hanks buffer. The 2 ml samples used for control contained 2 ml aliquots of resuspended cells in Hanks buffer without drugs. All of the above samples (2 ml final volume) were preincubated at 37° C. for 10 minutes in the presence of varying concentrations of test drug prior to challenge with 5×10^-7 M ionophore A23187. This ionophore is disclosed in Burka and Flower, Br. J. Pharmacology 65: 35-41 (1979). Antibiotic A 23187 was used as a probe for the study of calcium and function in biological systems. After ionophore challenge, SRS-A was synthesized in the samples by the cells for 10 minutes (at 37° C.) after which this synthesis was terminated by placing the samples in a boiling water bath for 10 minutes followed by centrifugation at 2,000×g (10 minutes) at 4° C. to remove coagulated protein and cellular debris. The SRS-A present in the resulting supernatants was quantitated by a bioassay using a guinea pig ileum as described in Orange, and Austen, Adv. Immunol, 10:105-144 (1969). For this bioassay, a 1.5 cm segment of ileum was removed from animals weighing 300 to 400 g and resuspended in an organ bath containing 10 ml of Tyrodes solution with 10^-6 M atropine sulfate and 10^-6 M pyrilamine maleate. The bath was maintained at 37° C. and aerated with a mixture of 95% O2 and 5% CO2. The concentration of SRS-A in the experimental samples was determined by a comparison of isotonic contraction responses elicited by the samples with those obtained with varying amounts of an SRS-A standard procedures of Orange, R. R. and Austen, K. F. Adv. Immunol. 10:105-144 (1969) against histamine (1 unit of SRS-A being that amount which gives a contractile response similar to that of […]). […]
# The mean percent inhibition [formula] at each concentration of the various test drugs was calculated. […]
IC50 [µM],SMILES,inhibition at 10 µM [%]
< 10,"CCCCCCCC/C=C\C(C)(C)/C=C\C/C=C\CCCC(=O)O [(all Z)-10,10-dimethyl-5,8,11-eicosatrienoic acid]",100
1 to 3,"CCCCC/C=C\C/C=C\C(C)(C)/C=C\C/C=C\CCCC(=O)O [(all Z)-10,10-dimethyleicosa-5,8,11,14-tetraenoic acid]",99 ± 1
